Source: patent US12662479B2 (Foghorn Therapeutics Inc., priority 2020, dated 2026)

Key:
HiBit-BRM fusion protein = target: T1, HiBit-BRM fusion protein (Homo sapiens, UniProt P51531); test: HiBiT-BRM cell-based degradation assay (Nano-Glo HiBiT Lytic Detection, 24 h); conditions: HeLa cells expressing HiBiT-BRM; for DC50: read-out: BRM HiBit Degradation IC50; for BRM HiBit Degradation Maximum measured: top dose 30 μM
T1 construct: expressed in transfected cells
Outline: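 Stable HiBiT-BRM HeLa line; 24 h compound exposure, top final 30 μM, 3-fold, 10 pts in duplicate. Lytic HiBiT/LgBiT luminescence readout. % degradation vs DMSO (0%) and 2 μM known BRM/BRG1 degrader (100%).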

[1] = target: T2, HiBit-BRG1 fusion protein (Homo sapiens, UniProt P51532); test: HiBiT-BRG1 cell-based degradation assay (Nano-Glo HiBiT Lytic Detection, 24 h); conditions: HeLa cells expressing HiBit-BRG1 and LgBit; for DC50: read-out: BRG1 HiBit Degradation IC50; for Dmax: HeLa, top dose 30 μM, read-out: BRG1 HiBit Degradation Maximum measured
T2 construct: expressed in transfected cells
Outline: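 Degradation is scaled from DMSO-treated cells (0%) to cells given 2 μM of a known BRM/BRG1 degrader (100%). HeLa cells stably carrying HiBiT-BRG1 plus LgBiT (5000/well) were lysed with Nano-Glo HiBiT detection reagent, shaken 10 min at RT, and luminescence read.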

T1 sequence (P51531 whole entry, the tested form may be a part): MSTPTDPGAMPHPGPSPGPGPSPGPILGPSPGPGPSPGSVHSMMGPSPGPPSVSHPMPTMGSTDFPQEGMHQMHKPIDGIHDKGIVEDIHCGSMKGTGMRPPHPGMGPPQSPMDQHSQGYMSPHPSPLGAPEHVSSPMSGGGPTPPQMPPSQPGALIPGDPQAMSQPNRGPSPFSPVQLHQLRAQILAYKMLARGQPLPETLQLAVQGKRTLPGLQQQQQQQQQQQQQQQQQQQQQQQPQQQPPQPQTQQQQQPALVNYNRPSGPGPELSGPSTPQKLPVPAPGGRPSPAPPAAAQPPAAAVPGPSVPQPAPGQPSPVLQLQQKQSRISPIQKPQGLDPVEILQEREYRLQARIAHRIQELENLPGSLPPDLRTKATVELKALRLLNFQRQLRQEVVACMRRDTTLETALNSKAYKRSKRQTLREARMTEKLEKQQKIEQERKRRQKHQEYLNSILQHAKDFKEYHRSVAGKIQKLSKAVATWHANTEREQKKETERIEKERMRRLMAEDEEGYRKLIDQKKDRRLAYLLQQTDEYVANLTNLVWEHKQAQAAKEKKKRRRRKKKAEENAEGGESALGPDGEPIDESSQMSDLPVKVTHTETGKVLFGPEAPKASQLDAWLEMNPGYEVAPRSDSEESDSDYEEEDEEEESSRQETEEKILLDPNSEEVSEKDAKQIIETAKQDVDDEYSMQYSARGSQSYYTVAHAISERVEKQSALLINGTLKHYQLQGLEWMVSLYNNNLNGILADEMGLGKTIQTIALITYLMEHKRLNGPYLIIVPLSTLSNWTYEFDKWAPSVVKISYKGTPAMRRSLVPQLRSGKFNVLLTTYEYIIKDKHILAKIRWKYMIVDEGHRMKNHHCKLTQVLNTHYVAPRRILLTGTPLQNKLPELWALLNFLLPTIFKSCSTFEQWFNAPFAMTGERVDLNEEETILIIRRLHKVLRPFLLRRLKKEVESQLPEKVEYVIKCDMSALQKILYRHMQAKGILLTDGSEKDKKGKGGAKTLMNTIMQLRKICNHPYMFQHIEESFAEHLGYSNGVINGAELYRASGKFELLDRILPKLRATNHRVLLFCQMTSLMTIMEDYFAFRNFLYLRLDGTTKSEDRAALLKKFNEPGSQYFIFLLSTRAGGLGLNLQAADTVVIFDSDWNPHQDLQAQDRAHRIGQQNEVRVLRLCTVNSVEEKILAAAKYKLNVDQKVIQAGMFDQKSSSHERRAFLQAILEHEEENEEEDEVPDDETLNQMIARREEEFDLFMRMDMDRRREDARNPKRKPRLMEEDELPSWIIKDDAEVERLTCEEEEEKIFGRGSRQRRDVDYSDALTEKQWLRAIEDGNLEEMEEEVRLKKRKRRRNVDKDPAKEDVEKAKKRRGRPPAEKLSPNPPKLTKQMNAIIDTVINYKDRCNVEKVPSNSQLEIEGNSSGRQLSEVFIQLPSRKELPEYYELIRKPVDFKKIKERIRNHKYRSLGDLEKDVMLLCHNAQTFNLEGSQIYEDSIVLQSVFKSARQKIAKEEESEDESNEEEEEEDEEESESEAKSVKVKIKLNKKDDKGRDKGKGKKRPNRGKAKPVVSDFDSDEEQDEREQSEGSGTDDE
T2 sequence (P51532 whole entry, the tested form may be a part): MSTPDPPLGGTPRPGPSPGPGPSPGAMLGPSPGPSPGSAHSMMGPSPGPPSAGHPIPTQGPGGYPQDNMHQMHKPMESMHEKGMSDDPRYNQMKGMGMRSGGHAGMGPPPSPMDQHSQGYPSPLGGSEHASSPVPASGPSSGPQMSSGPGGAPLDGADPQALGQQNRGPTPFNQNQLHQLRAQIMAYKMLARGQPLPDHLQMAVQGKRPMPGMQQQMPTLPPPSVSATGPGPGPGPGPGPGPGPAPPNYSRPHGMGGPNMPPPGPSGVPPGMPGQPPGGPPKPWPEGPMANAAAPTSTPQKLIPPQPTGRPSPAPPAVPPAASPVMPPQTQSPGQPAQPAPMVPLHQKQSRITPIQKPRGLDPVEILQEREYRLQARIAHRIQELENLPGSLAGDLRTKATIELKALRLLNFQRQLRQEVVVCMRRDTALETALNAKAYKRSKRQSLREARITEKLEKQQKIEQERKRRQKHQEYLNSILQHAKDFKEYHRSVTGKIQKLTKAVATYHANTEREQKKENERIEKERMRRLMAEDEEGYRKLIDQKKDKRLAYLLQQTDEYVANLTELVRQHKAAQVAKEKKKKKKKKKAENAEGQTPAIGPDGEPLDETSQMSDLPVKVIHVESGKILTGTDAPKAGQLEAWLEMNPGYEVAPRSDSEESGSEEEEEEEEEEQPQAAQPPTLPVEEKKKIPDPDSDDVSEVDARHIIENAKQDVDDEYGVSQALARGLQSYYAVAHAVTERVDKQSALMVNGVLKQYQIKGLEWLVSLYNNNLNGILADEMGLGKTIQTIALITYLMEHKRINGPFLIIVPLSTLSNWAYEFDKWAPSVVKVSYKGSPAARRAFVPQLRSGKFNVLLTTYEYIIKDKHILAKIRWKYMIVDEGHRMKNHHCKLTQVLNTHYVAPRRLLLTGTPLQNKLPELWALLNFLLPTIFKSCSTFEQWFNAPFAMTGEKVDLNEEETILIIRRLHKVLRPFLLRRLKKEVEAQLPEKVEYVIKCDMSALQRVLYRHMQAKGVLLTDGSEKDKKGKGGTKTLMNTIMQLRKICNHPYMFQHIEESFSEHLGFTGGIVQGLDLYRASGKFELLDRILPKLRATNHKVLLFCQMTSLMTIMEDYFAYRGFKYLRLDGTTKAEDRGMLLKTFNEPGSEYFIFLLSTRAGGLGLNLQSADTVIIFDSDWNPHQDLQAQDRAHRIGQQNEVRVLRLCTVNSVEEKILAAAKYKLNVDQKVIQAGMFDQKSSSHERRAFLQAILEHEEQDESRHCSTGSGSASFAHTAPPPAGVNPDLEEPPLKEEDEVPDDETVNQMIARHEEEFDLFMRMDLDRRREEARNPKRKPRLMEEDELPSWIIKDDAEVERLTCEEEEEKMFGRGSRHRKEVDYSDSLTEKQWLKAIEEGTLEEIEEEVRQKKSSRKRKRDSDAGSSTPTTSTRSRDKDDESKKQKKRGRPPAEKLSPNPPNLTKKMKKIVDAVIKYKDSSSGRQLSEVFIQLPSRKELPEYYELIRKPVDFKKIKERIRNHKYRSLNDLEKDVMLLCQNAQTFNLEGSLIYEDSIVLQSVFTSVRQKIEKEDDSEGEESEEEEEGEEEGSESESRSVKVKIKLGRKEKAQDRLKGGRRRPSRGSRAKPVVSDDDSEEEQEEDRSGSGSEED

SMILES | DC50 (HiBit-BRM fusion protein) | BRM HiBit Degradation Maximum measured (HiBit-BRM fusion protein) | DC50 [1] | Dmax [1]
Cc1ncsc1-c1ccc(CNC(=O)[C@@H]2C[C@@H](O)CN2C(=O)[C@@H](NC(=O)CN2CCC(C(=O)NCc3cccc(-c4cccc(-c5csc(NC(=O)CNC(=O)c6ccn(S(C)(=O)=O)c6)n5)c4)c3)CC2)C(C)(C)C)cc1 [Compound 138, 1-([[(2S)-1-[(2S,4R)-4-hydroxy-2-([[4-(4-methyl-1,3-thiazol-5-yl)phenyl]methyl]carbamoyl)pyrrolidin-1-yl]-3,3-dimethyl-1-oxobutan-2-yl]carbamoyl]methyl)-N-[[3-(2-[2-[(1-methanesulfonylpyrrol-3-yl)formamido]acetamido]-1,3-thiazol-4-yl)-[1,1-biphenyl]-3-yl]methyl]piperidine-4-carboxamide] | 1 to 10 µM | B (‘B’ = Maximum degradation ≥50% and ≤75%) | 1 to 10 µM | 50 to 75%
Cc1ncsc1-c1ccc(CNC(=O)[C@@H]2C[C@@H](O)CN2C(=O)[C@@H](NC(=O)CCCCCCCCCCC(=O)NCc2ccc(COC[C@H](NC(=O)c3ccn(S(C)(=O)=O)c3)C(=O)Nc3nc(-c4ccccc4)cs3)cc2)C(C)(C)C)cc1 [Compound 209, N-[(2S)-1-[(2S,4R)-4-hydroxy-2-([[4-(4-methyl-1,3-thiazol-5-yl)phenyl]methyl]carbamoyl)pyrrolidin-1-yl]-3,3-dimethyl-1-oxobutan-2-yl]-N′-[(4-[[(2S)-2-[(1-methanesulfonylpyrrol-3-yl)formamido]-2-[(4-phenyl-1,3-thiazol-2-yl)carbamoyl]ethoxy]methyl]phenyl)methyl]dodecanediamide] | > 10 µM | C (‘C’ = Maximum degradation <50%) | > 10 µM | < 50%
Cc1ncsc1-c1ccc(CNC(=O)[C@@H]2C[C@@H](O)CN2C(=O)[C@@H](NC(=O)C2CC2C(=O)NCc2cccc(-c3cccc(-c4csc(NC(=O)CNC(=O)c5ccn(S(C)(=O)=O)c5)n4)c3)c2)C(C)(C)C)cc1 (stereo partly drawn) [Compound 159, N1-[(2S)-1-[(2S,4R)-4-hydroxy-2-([[4-(4-methyl-1,3-thiazol-5-yl)phenyl]methyl]carbamoyl)pyrrolidin-1-yl]-3,3-dimethyl-1-oxobutan-2-yl]-N2-[[3-(2-[2-[(1-methanesulfonylpyrrol-3-yl)formamido]acetamido]-1,3-thiazol-4-yl)-[1,1-biphenyl]-3-yl]methyl]cyclopropane-1,2-dicarboxamide] | > 10 µM | C (‘C’ = Maximum degradation <50%) | > 10 µM | < 50%
CS(=O)(=O)n1ccc(C(=O)NCC(=O)Nc2nc(-c3cccc(-c4cccc(CNC(=O)CCCCCCCCCCNc5ccc6c(c5)C(=O)N(C5CCC(=O)NC5=O)C6=O)c4)c3)cs2)c1 (centres unmarked) [Compound 52] | > 10 µM | C (‘C’ = Maximum degradation <50%) | 0.1 to 1 µM | 50 to 75%
Cc1ncsc1-c1ccc(CNC(=O)[C@@H]2C[C@@H](O)CN2C(=O)[C@@H](NC(=O)CCCCCCC(=O)NCc2cccc(-c3cccc(-c4csc(NC(=O)CNC(=O)c5ccn(S(C)(=O)=O)c5)n4)c3)c2)C(C)(C)C)cc1 [Compound 50, N1-((S)-1-((2S,4R)-4-hydroxy-2-((4-(4-methylthiazol-5-yl)benzyl)carbamoyl)pyrrolidin-1-yl)-3,3-dimethyl-1-oxobutan-2-yl)-N8-((3′-(2-(2-(1-(methylsulfonyl)-1H-pyrrole-3-carboxamido)acetamido)thiazol-4-yl)-[1,1′-biphenyl]-3-yl)methyl)octanediamide] | 0.1 to 1 µM | A (‘A’ = Maximum degradation >75%) | 0.1 to 1 µM | > 75%
CS(=O)(=O)n1ccc(C(=O)NCC(=O)Nc2nc(-c3cccc(-c4cccc(CNC(=O)CCOCCOCCOc5cccc6c5C(=O)N(C5CCC(=O)NC5=O)C6=O)c4)c3)cs2)c1 (centres unmarked) [Compound 64, N-[2-[[4-[3-[3-[[3-[2-[2-[2-(2,6-dioxo-3-piperidyl)-1,3-dioxo-isoindolin-4-yl]oxyethoxy]ethoxy]propanoylamino]-methyl]phenyl]phenyl]thiazol-2-yl]amino]-2-oxo-ethyl]-1-methylsulfonyl-pyrrole-3-carboxamide] | > 10 µM | C (‘C’ = Maximum degradation <50%) | > 10 µM | < 50%
Cc1ncsc1-c1ccc(CNC(=O)[C@@H]2C[C@@H](O)CN2C(=O)[C@@H](NC(=O)CCCCCCCCCNC(=O)CN(C)c2cc(-c3cccc(-c4csc(NC(=O)CNC(=O)c5ccn(S(C)(=O)=O)c5)n4)c3)ccn2)C(C)(C)C)cc1 [Compound 47] | < 0.1 µM | B (‘B’ = Maximum degradation ≥50% and ≤75%) | < 0.1 µM | 50 to 75%
Cc1ncsc1-c1ccc(CNC(=O)[C@@H]2C[C@@H](O)CN2C(=O)[C@@H](NC(=O)NCc2cccc(-c3cccc(-c4csc(NC(=O)CNC(=O)c5ccn(S(C)(=O)=O)c5)n4)c3)c2)C(C)(C)C)cc1 [Compound 158, (2S,4R)-4-hydroxy-1-[(2S)-2-[([[3-(2-[2-[(1-methanesulfonylpyrrol-3-yl)formamido]acetamido]-1,3-thiazol-4-yl)-[1,1-biphenyl]-3-yl]methyl]carbamoyl)amino]-3,3-dimethylbutanoyl]-N-[[4-(4-methyl-1,3-thiazol-5-yl)phenyl]methyl]pyrrolidine-2-carboxamide] | > 10 µM | C (‘C’ = Maximum degradation <50%) | > 10 µM | < 50%
CS(=O)(=O)n1ccc(C(=O)NCC(=O)Nc2nc(-c3cccc(-c4ccnc(C5(C(=O)NCCNc6ccc7c(c6)C(=O)N(C6CCC(=O)NC6=O)C7)CC5)c4)c3)cs2)c1 (centres unmarked) [Compound 168, N-(2-((4-(3-(2-(1-((2-((2-(2,6-dioxopiperidin-3-yl)-3-oxoisoindolin-5-yl)amino)ethyl)carbamoyl)cyclopropyl)pyridin-4-yl)phenyl)thiazol-2-yl)amino)-2-oxoethyl)-1-(methylsulfonyl)-1H-pyrrole-3-carboxamide] | < 0.1 µM | A (‘A’ = Maximum degradation >75%) | < 0.1 µM | > 75%
CS(=O)(=O)n1ccc(C(=O)NCC(=O)Nc2nc(-c3cccc(-c4ccnc(C5(C(=O)NCCCCCCNc6ccc7c(c6)CN(C6CCC(=O)NC6=O)C7=O)CC5)c4)c3)cs2)c1 (centres unmarked) [Compound 53, N-(6-[[2-(2,6-dioxopiperidin-3-yl)-1-oxo-3H-isoindol-5-yl]amino]hexyl)-1-[4-[3-(2-[2-[(1-methanesulfonylpyrrol-3-yl)formamido]acetamido]-1,3-thiazol-4-yl)phenyl]pyridin-2-yl]cyclopropane-1-carboxamide] | < 0.1 µM | A (‘A’ = Maximum degradation >75%) | < 0.1 µM | > 75%
CN(CC(=O)NCCCCCCCCNc1ccc2c(c1)C(=O)N(C1CCC(=O)NC1=O)C2=O)c1cc(-c2cccc(-c3csc(NC(=O)CNC(=O)c4ccn(S(C)(=O)=O)c4)n3)c2)ccn1 (centres unmarked) [Compound 92] | > 10 µM | C (‘C’ = Maximum degradation <50%) | > 10 µM | < 50%
CS(=O)(=O)n1ccc(C(=O)NCC(=O)Nc2nc(-c3cccc(-c4ccnc(OCCNC(=O)CCOCCOCCOc5cccc6c5C(=O)N(C5CCC(=O)NC5=O)C6=O)c4)c3)cs2)c1 (centres unmarked) [Compound 68, N-[2-[[4-[3-[2-[2-[3-[2-[2-[2-(2,6-dioxo-3-piperidyl)-1,3-dioxoisoindolin-4-yl]oxyethoxy]ethoxy]propanoylamino]ethoxy]-4-pyridyl]phenyl]thiazol-2-yl]amino]-2-oxo-ethyl]-1-methylsulfonyl-pyrrole-3-carboxamide] | 0.1 to 1 µM | B (‘B’ = Maximum degradation ≥50% and ≤75%) | 0.1 to 1 µM | 50 to 75%
CS(=O)(=O)n1ccc(C(=O)N[C@@H](COCCCC(=O)NCCCCNc2ccc3c(c2)C(=O)N(C2CCC(=O)NC2=O)C3=O)C(=O)Nc2nc(-c3ccccc3)cs2)c1 (stereo partly drawn) [Compound 229, N-(4-[[2-(2,6-dioxopiperidin-3-yl)-1,3-dioxoisoindol-5-yl]amino]butyl)-4-[(2S)-2-[(1-methanesulfonylpyrrol-3-yl)formamido]-2-[(4-phenyl-1,3-thiazol-2-yl)carbamoyl]ethoxy]butanamide] | > 10 µM | C (‘C’ = Maximum degradation <50%) | > 10 µM | < 50%
Cc1ncsc1-c1ccc(CNC(=O)[C@@H]2C[C@@H](O)CN2C(=O)[C@@H](NC(=O)CCC(=O)NCCOc2cc(-c3cccc(-c4csc(NC(=O)CNC(=O)c5ccn(S(C)(=O)=O)c5)n4)c3)ccn2)C(C)(C)C)cc1 [Compound 76, N′-[(1S)-1-[(2S,4R)-4-hydroxy-2-[[4-(4-methylthiazol-5-yl)phenyl]methylcarbamoyl]pyrrolidine-1-carbonyl]-2,2-dimethyl-propyl]-N-[2-[[4-[3-[2-[[2-[(1-methylsulfonylpyrrole-3-carbonyl)amino]acetyl]amino]thiazol-4-yl]phenyl]-2-pyridyl]oxy]ethyl]butanediamide] | > 10 µM | C (‘C’ = Maximum degradation <50%) | > 10 µM | < 50%
